Measurements: US9796716B2, “Selective inhibitors of Tec and Src protein kinase families” (Pharmascience, Inc., priority 2012, dated 2017)
Read-outs that look alike come from different tables or passages of the source.

How the values were obtained:
[1] = target: recombinant human full-length Bruton Agammaglobulinemia Tyrosine Kinase (Btk) (Homo sapiens (Human), UniProt Q06187); test: Btk Kinase Inhibition Assay (fluorescence polarization); format: biochemical; settings: 10 μM ATP, 250 μM substrate, 60 minutes; Ki calculated from IC50 using the Cheng-Prusoff equation
Chain of recombinant human full-length Bruton Agammaglobulinemia Tyrosine Kinase (Btk) (Q06187 whole entry): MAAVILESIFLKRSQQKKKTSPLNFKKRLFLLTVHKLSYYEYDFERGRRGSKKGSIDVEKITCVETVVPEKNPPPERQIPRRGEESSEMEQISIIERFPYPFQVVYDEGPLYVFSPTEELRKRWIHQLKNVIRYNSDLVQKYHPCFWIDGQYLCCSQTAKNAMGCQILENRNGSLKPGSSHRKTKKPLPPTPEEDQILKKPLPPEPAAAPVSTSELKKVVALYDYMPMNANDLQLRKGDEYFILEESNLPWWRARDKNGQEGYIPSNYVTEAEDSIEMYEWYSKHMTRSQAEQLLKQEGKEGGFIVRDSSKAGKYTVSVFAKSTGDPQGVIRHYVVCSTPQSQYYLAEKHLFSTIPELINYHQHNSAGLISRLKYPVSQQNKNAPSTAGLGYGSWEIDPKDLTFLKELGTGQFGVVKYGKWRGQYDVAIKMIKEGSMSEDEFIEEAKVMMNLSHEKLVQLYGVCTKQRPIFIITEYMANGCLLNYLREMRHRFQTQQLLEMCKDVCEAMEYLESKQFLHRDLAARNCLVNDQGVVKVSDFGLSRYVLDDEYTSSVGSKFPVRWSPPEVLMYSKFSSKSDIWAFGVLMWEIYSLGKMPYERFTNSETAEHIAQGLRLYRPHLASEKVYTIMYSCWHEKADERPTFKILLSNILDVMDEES
Experimental: Kinase Binding Btk Kinase Inhibition Assay
Fluorescence polarization-based kinase assays were performed in 384 well-plate format using histidine tagged recombinant human full-length Bruton Agammaglobulinemia Tyrosine Kinase (Btk) and a modified protocol of the KinEASE™ FP Fluorescein Green Assay supplied from Millipore. Kinase reaction were performed at room temperature for 60 minutes in presence of 250 μM substrate, 10 μM ATP and variable test article concentrations. The reaction was stopped with EDTA/kinase detection reagents and the polarization measured on a Tecan 500 instrument. From the dose-response curve obtained, the IC50 was calculated using Graph Pad Prisms® using a non linear fit curve. The Km for ATP on each enzyme was experimentally determined and the Ki values calculated using the Cheng-Prusoff equation (see: Cheng Y, Prusoff W H. (1973) Relationship between the inhibition constant (K1) and the concentration of inhibitor which causes 50 percent inhibition (I50) of an enzymatic reaction”. Biochem Pharmacol 22 (23): 3099-108).

Balb/c mice = test: Mouse Arthus; format: in vivo; settings: oral gavage at 30 mg/kg, 1 h pre-treatment
Experimental: Mouse Arthus studies were conducted as reported in Braselmann S, Taylor V, Zhao H, Wang S, Sylvain C, Baluom M, Qu K, Herlaar E, Lau A, Young C, Wong B R, Lovell S, Sun T, Park G, Argade A, Jurcevic S, Pine P, Singh R, Grossbard E B, Payan D G, Masuda E S: R406 an orally available spleen tyrosine kinase inhibitor blocks fc receptor signaling and reduces immune-complex mediated inflammation. J Pharmacol Exp Ther, 2006, 319:998-1008.
In summary, female Balb/c mice (6-7 weeks on arrival) were habituated to the animal facility for at least 4 days. On the day of the experiment, animals were pre-treated (t=minus 1 h) with compound or vehicle alone by gavage (PO). At t=0, animals were injected intravenously (IV; 0.1 mL/mouse) with saline containing chicken ovalbumin and Evan's blue (10 mg/mL of each). Ten minutes later (t=10 min), animals were anesthesized with isoflurane, the dorsal surface was shaved and rabbit anti-chicken ovalbumin antibody was then injected intradermally at one site on the right side of the animal (25 μg in 30 μL). The same amount of isotype control antibody was then injected on the left side.
The animals were then returned to their home cage and skin punches (8 mm) were collected from each injection site four hours later. The samples were placed in 1 mL formamide overnight at 80 degrees C. (1 skin biopsy per 1 mL formamide in a glass tube). The amount of Evan's blue in the formamide solution was then assessed by spectrophotometry (630 nm) as a measure of serum extravasation into the dermis.

[2] = tested on: Splenocytes (B cell proliferation stimulated with anti-IgM F(ab′)2); test: Splenic Cell Proliferation Assay; format: cell-based; settings: CD1 mouse splenocytes, 2.5 ug/ml anti-IgM F(ab′)2 for 72 h, Cell Titer-Glo, read-out: EC50 (nM), Inhibition of splenic cell proliferation
Experimental: Splenic Cell Proliferation Assay
Splenocytes were obtained from 6 week old male CD1 mice (Charles River Laboratories Inc.). Mouse spleens were manually disrupted in PBS and filtered using a 70 um cell strainer followed by ammonium chloride red blood cell lysis. Cells were washed, resuspended in Splenocyte Medium (HyClone RPMI supplemented with 10% heat-inactivated FBS, 0.5× non-essential amino acids, 10 mM HEPES, 50 uM beta mercaptoethanol) and incubated at 37° C., 5% CO2 for 2 h to remove adherent cells. Suspension cells were seeded in 96 well plates at 50,000 cells per well and incubated at 37° C., 5% CO2 for 1 h. Splenocytes were pre-treated in triplicate with 10,000 nM curves of Formula 1 compounds for 1 h, followed by stimulation of B cell proliferation with 2.5 ug/ml anti-IgM F(ab′)2 (Jackson ImmunoResearch) for 72 h. Cell proliferation was measured by Cell Titer-Glo Luminescent Assay (Promega). EC50 values (50% proliferation in the presence of compound as compared to vehicle treated controls) were calculated from dose response compound curves using GraphPad Prism Software.

B10R111 mice = test: Mouse CIA model; format: in vivo; settings: oral gavage at 30 mg/kg (BID)
Experimental: Mouse CIA model was performed using the methods described by Trentham D E, Townes A S, Kang A H. Autoimmunity to Type II Collagen: An Experimental Model of Arthritis. J Exp Med 1977; 857-868, and Bendele A M. Animal Models of Rheumatoid Arthritis. J Musculoskel Interact 2001; 377-385.
In summary, male B10R111 mice (7-9 wks on arrival) were habituated to the animal facility for at least 4 days. On experimental day 0 mice were anaesthetized with isoflurane and the dorsal surface was shaved. Collagen, emulsified in Freund's complete adjuvant (CFA) supplemented with additional mycobacterium tuberculosis (TB) H37Ra, was injected intradermally at the base of the tail (0.15 mL/animal; 2 mg/mL collagen and 2.5 mg/mL TB in CFA). This CFA treatment was repeated on day 15.
From day 15 to the end of the study animals were scored daily for signs of arthritis. On the first day of disease (RA Day 1) animals were recruited to the study and grouped using a balanced design based on arthritis score. Once recruited, animals were weighed and dosed twice daily by gavage (PO, BID). Recruited animals were then scored twice a week on RA days 1, 5, 8 and 12. At the end of the study (RA day 12) animals were weighed and scored.

Row | Structure (SMILES) | Ki [1] [nM] | efficacy in mouse Arthus (Evan's blue extravasation) (Balb/c mice) | EC50 ([2]; Mus musculus, Splenocyte, 72 h) [nM] | EC50 [2] [nM] | efficacy in mouse CIA model (arthritis score) (B10R111 mice)
1 | Cc1ncc(COc2cc(F)cc(Oc3ccc(-c4nn(C5CCOCC5)c5ncnc(N)c45)cc3)c2)cn1 [Compound 106] | < 100 | demonstrated efficacy | < 100 | – | –
2 | Cc1ncc(COc2cc(F)cc(Oc3ccc(-c4nn(C(C)C)c5ncnc(N)c45)cc3)c2)s1 [Compound 78] | < 100 | demonstrated efficacy | < 100 | – | demonstrated efficacy
3 | Cc1ncc(COc2cc(F)cc(Oc3ccc(-c4nn(C(C)C)c5ncnc(N)c45)cc3)c2)cn1 [Compound 102] | < 100 | demonstrated efficacy | < 100 | – | demonstrated efficacy
4 | Cc1ncc(COc2cc(F)cc(Oc3ccc(-c4nn(C5CCCC5)c5ncnc(N)c45)cc3)c2)s1 [Compound 58] | < 100 | demonstrated efficacy | < 100 | – | demonstrated efficacy
5 | Nc1ncnc2c1c(-c1ccc(Oc3cccc(OCc4cncs4)c3)cc1)nn2C1CCOCC1 [Compound 24] | < 100 | demonstrated efficacy | < 100 | – | –
6 | Cc1ncc(COc2cc(F)cc(Oc3ccc(-c4nn(CC5(C)COC5)c5ncnc(N)c45)cc3)c2)s1 [Compound 125] | < 100 | demonstrated efficacy | < 100 | – | –
7 | Cc1ncc(COc2cc(F)cc(Oc3ccc(-c4nn(C5CCCC5)c5ncnc(N)c45)cc3)c2)cn1 [Compound 107] | < 100 | demonstrated efficacy | < 100 | – | –
8 | Nc1ncnc2c1c(-c1ccc(Oc3cc(F)cc(OCc4cncs4)c3)cc1)nn2C1CCCC1 [Compound 50] | < 100 | demonstrated efficacy | < 100 | – | –
9 | Cc1ncc(COc2cc(F)cc(Oc3ccc(-c4nn(C(CO)CO)c5ncnc(N)c45)cc3)c2)s1 [Compound 100] | < 100 | demonstrated efficacy | < 100 | – | –
10 | Nc1ncnc2c1c(-c1ccc(Oc3cc(F)cc(CCc4cccnc4)c3)cc1)nn2C1CCOCC1 [Compound 80] | < 100 | – | 100 to 1000 | – | –
11 | Cc1ncc(COc2cc(F)cc(Oc3ccc(-c4nn(CC(C)(C)O)c5ncnc(N)c45)cc3)c2)cn1 [Compound 122] | < 100 | – | 100 to 1000 | – | –

Further lines, with some results ahead:

Row | Ki [1] [nM] | Structure (SMILES) | efficacy in mouse Arthus (Evan's blue extravasation) (Balb/c mice) | EC50 ([2]; Mus musculus, Splenocyte, 72 h) [nM] | EC50 [2] [nM] | efficacy in mouse CIA model (arthritis score) (B10R111 mice)
12 | < 100 | Cn1cncc1COc1cc(F)cc(Oc2ccc(-c3nn(CCO)c4ncnc(N)c34)cc2)c1 [Compound 90] | demonstrated efficacy | 100 to 1000 | – | –
13 | < 100 | N#Cc1ccccc1COc1cccc(Oc2ccc(-c3nn(C4CCCC4)c4ncnc(N)c34)cc2)c1 [Compound 15] | demonstrated efficacy | – | < 100 | –
14 | < 100 | Nc1ncnc2c1c(-c1ccc(Oc3cc(F)cc(OCc4cncs4)c3)cc1)nn2C1CCOCC1 [Compound 46] | demonstrated efficacy | < 100 | – | –
15 | < 100 | Cc1ncc(COc2cc(F)cc(Oc3ccc(-c4nn(C5CCOCC5)c5ncnc(N)c45)cc3)c2)s1 [Compound 54] | demonstrated efficacy | < 100 | – | –
16 | < 100 | Cn1cncc1COc1cc(F)cc(Oc2ccc(-c3nn(C4CCCC4)c4ncnc(N)c34)cc2)c1 [Compound 82] | demonstrated efficacy | < 100 | – | –
17 | < 100 | Cn1cncc1COc1cc(F)cc(Oc2ccc(-c3nn(C4CCOCC4)c4ncnc(N)c34)cc2)c1 [Compound 71] | demonstrated efficacy | < 100 | – | –
18 | < 100 | Cc1ccc(COc2cc(F)cc(Oc3ccc(-c4nn(C(C)C)c5ncnc(N)c45)cc3)c2)cn1 [Compound 85] | demonstrated efficacy | < 100 | – | demonstrated efficacy
19 | < 100 | Cc1ncc(COc2cccc(Oc3ccc(-c4nn(C5CCOCC5)c5ncnc(N)c45)cc3F)c2)s1 [Compound 62] | demonstrated efficacy | < 100 | – | –
20 | < 100 | Cn1cncc1COc1cc(F)cc(Oc2ccc(-c3nn(C4CCCCC4)c4ncnc(N)c34)cc2)c1 [Compound 103] | demonstrated efficacy | < 100 | – | –
21 | < 100 | CC(C)n1nc(-c2ccc(Oc3cc(F)cc(OCc4cncn4C)c3)cc2)c2c(N)ncnc21 [Compound 79] | demonstrated efficacy | < 100 | – | –
22 | < 100 | Cc1ncc(COc2cc(F)cc(Oc3ccc(-c4nn(C5CCOCC5)c5ncnc(N)c45)cc3)c2)n1C [Compound 108] | demonstrated efficacy | < 100 | – | –
23 | < 100 | Nc1ncnc2c1c(-c1ccc(Oc3cccc(OCc4cncs4)c3)cc1)nn2C1CCCC1 [Compound 14] | demonstrated efficacy | < 100 | – | demonstrated efficacy
24 | < 100 | Cc1ncc(COc2cc(F)cc(Oc3ccc(-c4nn(CC(C)(C)O)c5ncnc(N)c45)cc3)c2)s1 [Compound 117] | demonstrated efficacy | < 100 | – | –
25 | < 100 | Cc1ncc(COc2cc(F)cc(Oc3ccc(-c4nn(C5CCOCC5)c5ncnc(N)c45)cc3F)c2)s1 [Compound 59] | demonstrated efficacy | < 100 | – | –
